Reference: ChEMBL document CHEMBL4257221, “Peptides comprising non-natural amino acids and methods of making and using the same” (2016)
Numbered stars: 1 amine (or outer) side, 2 acyl side, 3 side chain; on linkers, the order of the positions; unused ones are H or OH. Square brackets hold non-standard residues; d marks the D form. Peptide text beside a SMILES is read from it. ξ: configuration not given here. X1 = O=C([C@H]1CCC[C@@H]1N[*:1])[*:2]; X2 = O=C([C@H]1CNC[C@@H]1N[*:1])[*:2]; ξβ3hN = NC(=O)CC(N)CC(=O)O; ξβ3hL = CC(C)CC(N)CC(=O)O; ξβ3hK = NCCCCC(N)CC(=O)O; βAla = NCCC(=O)O

How the values were obtained:
[1] = molecular target: T1, Vasoactive intestinal polypeptide receptor 1 (Homo sapiens, UniProt P32241); test: Agonist activity at human VIPR1 expressed in CHOK1 cells assessed as intracellular cAMP accumulation after 60 mins by PathHunter assay; format: functional, cell-based
T1 sequence (P32241 whole entry): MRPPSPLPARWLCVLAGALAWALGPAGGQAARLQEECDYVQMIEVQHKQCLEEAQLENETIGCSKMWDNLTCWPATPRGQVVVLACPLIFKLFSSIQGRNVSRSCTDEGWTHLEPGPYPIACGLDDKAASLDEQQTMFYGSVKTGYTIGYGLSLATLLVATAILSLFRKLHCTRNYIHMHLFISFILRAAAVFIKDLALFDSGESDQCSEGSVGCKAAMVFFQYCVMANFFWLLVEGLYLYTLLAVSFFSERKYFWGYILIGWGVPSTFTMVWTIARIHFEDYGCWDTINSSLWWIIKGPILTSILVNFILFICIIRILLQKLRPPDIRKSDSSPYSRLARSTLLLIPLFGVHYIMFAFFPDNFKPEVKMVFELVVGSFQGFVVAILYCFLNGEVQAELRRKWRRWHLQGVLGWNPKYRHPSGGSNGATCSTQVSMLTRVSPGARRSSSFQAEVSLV

[2] = molecular target: T2, Vasoactive intestinal polypeptide receptor 2 (Homo sapiens, UniProt P41587); test: Agonist activity at human VIPR2 expressed in CHOK1 cells assessed as intracellular cAMP accumulation after 60 mins by PathHunter assay; format: functional, cell-based
T2 sequence (P41587 whole entry): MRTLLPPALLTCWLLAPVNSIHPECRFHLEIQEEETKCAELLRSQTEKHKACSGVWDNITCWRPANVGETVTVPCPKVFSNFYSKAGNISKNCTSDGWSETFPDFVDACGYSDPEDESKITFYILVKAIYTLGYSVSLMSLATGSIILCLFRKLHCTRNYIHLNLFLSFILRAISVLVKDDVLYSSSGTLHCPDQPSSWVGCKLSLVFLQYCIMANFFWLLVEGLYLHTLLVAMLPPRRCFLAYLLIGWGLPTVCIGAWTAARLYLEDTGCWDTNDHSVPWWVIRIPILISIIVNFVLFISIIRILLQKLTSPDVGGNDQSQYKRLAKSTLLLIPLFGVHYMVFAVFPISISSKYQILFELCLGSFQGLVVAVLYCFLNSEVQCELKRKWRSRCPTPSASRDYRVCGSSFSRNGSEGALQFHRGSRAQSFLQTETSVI

| Compound | EC50 [1] | EC50 [2] |
| --- | --- | --- |
| CC[C@H](C)[C@H](NC(=O)[C@H](C)NC(=O)[C@H](CC(N)=O)NC(=O)CC(CC(C)C)NC(=O)[C@H](Cc1ccc(O)cc1)NC(=O)[C@H](CCCCN)NC(=O)[C@H](CCCCN)NC(=O)CC(NC(=O)[C@H](C)NC(=O)[C@H](CC(C)C)NC(=O)[C@H](CCC(N)=O)NC(=O)CC(CCCCN)NC(=O)[C@H](CCCNC(=N)N)NC(=O)[C@H](CC(C)C)NC(=O)[C@H](CCCNC(=N)N)NC(=O)CC(NC(=O)[C@H](Cc1ccc(O)cc1)NC(=O)[C@H](CC(N)=O)NC(=O)[C@H](CC(=O)O)NC(=O)CC(NC(=O)[C@H](Cc1ccccc1)NC(=O)[C@@H](NC(=O)[C@H](C)NC(=O)CC(CC(=O)O)NC(=O)[C@@H](Cc1ccccc1)NC(=O)[C@@H](N)Cc1cnc[nH]1)C(C)C)C(C)O)C(C)O)C(C)C)C(=O)NC(CC(=O)N[C@@H](CC(N)=O)C(=O)O)CC(C)C (stereo partly drawn) | 912 nM | 609 nM |
| CC[C@H](C)[C@H](NC(=O)[C@H](C)NC(=O)[C@H](CC(N)=O)NC(=O)CC(CC(C)C)NC(=O)[C@H](Cc1ccc(O)cc1)NC(=O)[C@H](CCCCN)NC(=O)[C@H](CCCCN)NC(=O)CC(NC(=O)[C@H](C)NC(=O)[C@H](CC(C)C)NC(=O)[C@H](CCC(N)=O)NC(=O)CC(CCCCN)NC(=O)[C@H](CCCNC(=N)N)NC(=O)[C@H](CC(C)C)NC(=O)[C@H](CCCNC(=N)N)NC(=O)CC(NC(=O)[C@H](Cc1ccc(O)cc1)NC(=O)CC(CC(N)=O)NC(=O)[C@H](CC(=O)O)NC(=O)[C@@H](NC(=O)[C@H](Cc1ccccc1)NC(=O)CC(NC(=O)[C@H](C)NC(=O)[C@H](CC(=O)O)NC(=O)[C@@H](Cc1ccccc1)NC(=O)[C@@H](N)Cc1cnc[nH]1)C(C)C)[C@@H](C)O)C(C)O)C(C)C)C(=O)NC(CC(=O)N[C@@H](CC(N)=O)C(=O)O)CC(C)C (stereo partly drawn) | > 1000 nM | 989 nM |
| CC[C@H](C)[C@H](NC(=O)[C@H](C)NC(=O)[C@H](CC(N)=O)NC(=O)CC(CC(C)C)NC(=O)[C@H](Cc1ccc(O)cc1)NC(=O)[C@H](CCCCN)NC(=O)[C@H](CCCCN)NC(=O)CC(NC(=O)[C@H](C)NC(=O)[C@H](CC(C)C)NC(=O)[C@H](CCC(N)=O)NC(=O)CC(CCCCN)NC(=O)[C@H](CCCNC(=N)N)NC(=O)[C@H](CC(C)C)NC(=O)[C@H](CCCNC(=N)N)NC(=O)CC(NC(=O)[C@H](Cc1ccc(O)cc1)NC(=O)[C@H](CC(N)=O)NC(=O)[C@H](CC(=O)O)NC(=O)[C@@H](NC(=O)[C@H](Cc1ccccc1)NC(=O)[C@@H](NC(=O)[C@H](C)NC(=O)[C@H](CC(=O)O)NC(=O)[C@@H](Cc1ccccc1)NC(=O)[C@@H](N)Cc1cnc[nH]1)C(C)C)[C@@H](C)O)C(C)O)C(C)C)C(=O)NC(CC(=O)N[C@@H](CC(N)=O)C(=O)O)CC(C)C (stereo partly drawn) | 619000 nM | 344 nM |
| CC[C@H](C)[C@H](NC(=O)[C@H](C)NC(=O)[C@H](CC(N)=O)NC(=O)CC(CC(C)C)NC(=O)[C@H](Cc1ccc(O)cc1)NC(=O)[C@H](CCCCN)NC(=O)[C@H](CCCCN)NC(=O)CC(NC(=O)[C@H](C)NC(=O)[C@H](CC(C)C)NC(=O)[C@H](CCC(N)=O)NC(=O)CC(CCCCN)NC(=O)[C@H](CCCNC(=N)N)NC(=O)[C@H](CC(C)C)NC(=O)[C@H](CCCNC(=N)N)NC(=O)CC(NC(=O)[C@H](Cc1ccc(O)cc1)NC(=O)[C@H](CC(N)=O)NC(=O)[C@H](CC(=O)O)NC(=O)[C@@H](NC(=O)[C@H](Cc1ccccc1)NC(=O)[C@H]1CCC[C@@H]1NC(=O)[C@H](C)NC(=O)[C@H](CC(=O)O)NC(=O)[C@@H](Cc1ccccc1)NC(=O)[C@@H](N)Cc1cnc[nH]1)[C@@H](C)O)C(C)O)C(C)C)C(=O)NC(CC(=O)N[C@@H](CC(N)=O)C(=O)O)CC(C)C (stereo partly drawn) | 89.3 nM | > 1000 nM |
| CC(=O)N[C@@H](Cc1cnc[nH]1)C(=O)N[C@@H](CO)C(=O)N[C@@H](CC(=O)O)C(=O)N[C@@H](C)C(=O)N[C@H](C(=O)N[C@@H](Cc1ccccc1)C(=O)N[C@H](C(=O)N[C@@H](CCC(=O)O)C(=O)N[C@@H](CC(N)=O)C(=O)N[C@@H](Cc1ccc(O)cc1)C(=O)N[C@H](C(=O)N[C@@H](CCCCN)C(=O)N[C@@H](CC(C)C)C(=O)N[C@@H](CCCNC(=N)N)C(=O)N[C@@H](CCCCN)C(=O)N[C@@H](CCC(N)=O)C(=O)N[C@@H](CC(C)C)C(=O)N[C@@H](C)C(=O)N[C@@H](C)C(=O)N[C@H]1CNC[C@@H]1C(=O)N[C@@H](CCCCN)C(=O)N[C@@H](Cc1ccc(O)cc1)C(=O)N[C@H]1CCC[C@@H]1C(=O)N[C@@H](CC(N)=O)C(=O)N[C@@H](CC(=O)O)C(=O)N[C@@H](CC(C)C)C(=O)NC(CCCCN)CC(=O)N[C@@H](CCCCN)C(=O)NCC(=O)NCCC(=O)N[C@H](C(=O)O)[C@@H](C)O)[C@@H](C)O)[C@@H](C)O)C(C)C (stereo partly drawn) (Ac-HSDAVFTENYTKLRKQLAA[X2]KY[X1]NDL[ξβ3hK]KG[βAla]T-OH) | > 1000 nM | 0.963 nM |

Now those with a lower EC50 [1], led by results:

| EC50 [1] | EC50 [2] | Compound |
| --- | --- | --- |
| 71.2 nM | 50.3 nM | CC[C@H](C)[C@H](NC(=O)[C@H](C)NC(=O)[C@H](CC(N)=O)NC(=O)CC(CC(C)C)NC(=O)[C@H](Cc1ccc(O)cc1)NC(=O)[C@H](CCCCN)NC(=O)[C@H](CCCCN)NC(=O)CC(NC(=O)[C@H](C)NC(=O)[C@H](CC(C)C)NC(=O)[C@H](CCC(N)=O)NC(=O)CC(CCCCN)NC(=O)[C@H](CCCNC(=N)N)NC(=O)[C@H](CC(C)C)NC(=O)[C@H](CCCNC(=N)N)NC(=O)CC(NC(=O)[C@H](Cc1ccc(O)cc1)NC(=O)[C@H](CC(N)=O)NC(=O)[C@H](CC(=O)O)NC(=O)[C@@H](NC(=O)[C@H](Cc1ccccc1)NC(=O)CC(NC(=O)[C@H](C)NC(=O)[C@H](CC(=O)O)NC(=O)[C@@H](Cc1ccccc1)NC(=O)[C@@H](N)Cc1cnc[nH]1)C(C)C)[C@@H](C)O)C(C)O)C(C)C)C(=O)NC(CC(=O)N[C@@H](CC(N)=O)C(=O)O)CC(C)C (stereo partly drawn) |
| 0.195 nM | 0.0785 nM | CC[C@H](C)[C@H](NC(=O)[C@H](CO)NC(=O)[C@H]1CCC[C@@H]1NC(=O)[C@H](CC(C)C)NC(=O)[C@H](Cc1ccc(O)cc1)NC(=O)[C@H]1CNC[C@@H]1NC(=O)[C@H](CCCCN)NC(=O)[C@H](C)NC(=O)[C@H](C)NC(=O)[C@H]1CCC[C@@H]1NC(=O)[C@H](CCC(N)=O)NC(=O)[C@H](CCCCN)NC(=O)[C@H](CCCNC(=N)N)NC(=O)[C@H](CC(C)C)NC(=O)[C@H](CCCNC(=N)N)NC(=O)[C@@H](NC(=O)[C@H](Cc1ccc(O)cc1)NC(=O)[C@H](CC(N)=O)NC(=O)[C@H](CC(=O)O)NC(=O)[C@@H](NC(=O)[C@H](Cc1ccccc1)NC(=O)[C@@H](NC(=O)[C@H](C)NC(=O)[C@H](CC(=O)O)NC(=O)[C@H](CO)NC(=O)[C@H](Cc1cnc[nH]1)NC(C)=O)C(C)C)[C@@H](C)O)[C@@H](C)O)C(=O)N[C@@H](CCCCN)C(=O)NC(CC(N)=O)CC(=O)N[C@@H](CCCCN)C(=O)N[C@@H](CCCNC(=N)N)C(=O)N[C@@H](Cc1ccc(O)cc1)C(=O)O (stereo partly drawn) (Ac-HSDAVFTDNYTRLRKQ[X1]AAK[X2]YL[X1]SIK[ξβ3hN]KRY-OH) |
| 9.09 nM | 104 nM | CC(=O)N[C@@H](Cc1cnc[nH]1)C(=O)N[C@@H](CO)C(=O)N[C@@H](CC(=O)O)C(=O)N[C@@H](C)C(=O)N[C@H](C(=O)N[C@@H](Cc1ccccc1)C(=O)N[C@H](C(=O)N[C@@H](CCC(=O)O)C(=O)N[C@@H](CC(N)=O)C(=O)N[C@@H](Cc1ccc(O)cc1)C(=O)N[C@H](C(=O)N[C@@H](CCCCN)C(=O)N[C@@H](CC(C)C)C(=O)N[C@@H](CCCNC(=N)N)C(=O)N[C@@H](CCCCN)C(=O)N[C@@H](CCC(N)=O)C(=O)N[C@@H](CC(C)C)C(=O)N[C@@H](C)C(=O)N[C@H]1CCC[C@@H]1C(=O)N[C@@H](CCCCN)C(=O)N[C@@H](CCCCN)C(=O)N[C@@H](Cc1ccc(O)cc1)C(=O)N[C@H]1CCC[C@@H]1C(=O)N[C@@H](CC(N)=O)C(=O)N[C@@H](CC(=O)O)C(=O)NC(CC(=O)N[C@@H](CCCCN)C(=O)N[C@@H](CCCCN)C(=O)NCC(=O)NCCC(=O)N[C@H](C(=O)O)[C@@H](C)O)CC(C)C)[C@@H](C)O)[C@@H](C)O)C(C)C (stereo partly drawn) (Ac-HSDAVFTENYTKLRKQLA[X1]KKY[X1]ND[ξβ3hL]KKG[βAla]T-OH) |
| 9.52 nM | 0.422 nM | CC(=O)N[C@@H](Cc1cnc[nH]1)C(=O)N[C@@H](CO)C(=O)N[C@@H](CC(=O)O)C(=O)N[C@@H](C)C(=O)N[C@H](C(=O)N[C@@H](Cc1ccccc1)C(=O)N[C@H](C(=O)N[C@@H](CCC(=O)O)C(=O)N[C@@H](CC(N)=O)C(=O)N[C@@H](Cc1ccc(O)cc1)C(=O)N[C@H](C(=O)N[C@@H](CCCCN)C(=O)N[C@@H](CC(C)C)C(=O)N[C@@H](CCCNC(=N)N)C(=O)N[C@@H](CCCCN)C(=O)N[C@@H](CCC(N)=O)C(=O)N[C@H]1CCC[C@@H]1C(=O)N[C@@H](C)C(=O)N[C@@H](C)C(=O)N[C@@H](CCCCN)C(=O)N[C@H]1CNC[C@@H]1C(=O)N[C@@H](Cc1ccc(O)cc1)C(=O)N[C@@H](CC(C)C)C(=O)N[C@H]1CCC[C@@H]1C(=O)N[C@@H](CC(=O)O)C(=O)N[C@@H](CC(C)C)C(=O)N[C@@H](CCCCN)C(=O)NC(CCCCN)CC(=O)NCC(=O)NCC(=O)N[C@H](C(=O)O)[C@@H](C)O)[C@@H](C)O)[C@@H](C)O)C(C)C (stereo partly drawn) (Ac-HSDAVFTENYTKLRKQ[X1]AAK[X2]YL[X1]DLK[ξβ3hK]GGT-OH) |
